In brackets after ≈: the same amount, converted by molar mass.
How the values were obtained:
[1] = test system: H. influenzae 529 (Haemophilus influenzae ATCC 9006); experiment: MIC by broth microdilution, H. influenzae 529; format: cell-based; details: ATCC9006, DRCC 529, broth microdilution in MHB, read-out: Antimicrobial Screening (MIC) H. influenzae 529
Procedure: (§1) Minimum Inhibiton Concentrations (MICs) were determined by broth microdilution technique as per the guidelines prescribed in the fifth edition of Approved Standards, NCCLS document M7-A5 Vol 20-No 2, 2000 Villinova, Pa.
(§2) Initial stock solution of the test compound was prepared in DMSO. Subsequent two fold dilutions were carried out in sterile Mueller Hinton Broth (Difco) (MHB).
(§3) Frozen cultures stocks were inoculated into 50 ml sterile MHB in 250 ml Erlyn Meyer flasks.
(§4) Composition of MHB is as follows:
(§5) Flasks were incubated for 4 to 5 h at 35° C. on a rotary shaker at 150 rpm. Inoculum was prepared by diluting the culture in sterile MHB to obtain a turbidity of 0.5 McFarland standard. This corresponds to 1-2×10^8 CFU/ml. The stock was further diluted in sterile broth to obtain 1-2×10^6 CFU/ml. 50 μl of the above diluted inoculum was added from 1-10 wells. The plates were incubated overnight at 37° C.

[2] = test system: Enterococcus sp 034 S (Enterococcus faecalis ATCC 29212); experiment: MIC by broth microdilution, Enterococcus sp 034 S; format: cell-based; details: ATCC29212, DRCC 034, S, broth microdilution in MHB, read-out: Antimicrobial Screening (MIC) Enterococcus sp 034 S
Procedure: as §1, §2, §3, §4, §5

[3] = test system: Staphylococcus aureus 213 Smith S (ATCC 49951); experiment: MIC by broth microdilution, Staphylococcus aureus 213 Smith S; format: cell-based; details: ATCC49951, DRCC 213, Smith S, broth microdilution in MHB, read-out: Antimicrobial Screening (MIC) Staphylococcus aureus 213 Smith S
Procedure: as §1, §2, §3, §4, §5

Salmorella TA 97 = experiment: MIC by broth microdilution, Salmorella TA 97; format: cell-based; details: read-out: Antimicrobial Screening (MIC) Salmorella TA 97
Procedure: as §1, §2, §3, §4, §5

[4] = test system: Staphylococcus aureus 035 S (ATCC 29213); experiment: MIC by broth microdilution, Staphylococcus aureus 035 S; format: cell-based; details: ATCC29213, DRCC 035, S, broth microdilution in MHB, read-out: Antimicrobial Screening (MIC) Staphylococcus aureus 035 S
Procedure: as §1, §2, §3, §4, §5

[5] = test system: Enterococcus sp 153 R (Enterococcus faecalis NCTC 12201); experiment: MIC by broth microdilution, Enterococcus sp 153 R; format: cell-based; details: NCTC12201, DRCC 153, R, broth microdilution in MHB, read-out: Antimicrobial Screening (MIC) Enterococcus sp 153 R
Procedure: as §1, §2, §3, §4, §5

[6] = test system: H. influenzae 433 (Haemophilus influenzae ATCC 49766); experiment: MIC by broth microdilution, H. influenzae 433; format: cell-based; details: ATCC49766, DRCC 433, broth microdilution in MHB, read-out: Antimicrobial Screening (MIC) H. influenzae 433
Procedure: as §1, §2, §3, §4, §5

[7] = test system: Staphylococcus aureus 019 MRSA (ATCC 33591); experiment: MIC by broth microdilution, Staphylococcus aureus 019 MRSA; format: cell-based; details: DRCC 019, MRSA, broth microdilution in MHB, read-out: Antimicrobial Screening (MIC) Staphylococcus aureus 019 MRSA
Procedure: as §1, §2, §3, §4, §5

[8] = test system: M. catarrhalis 300 (Moraxella catarrhalis ATCC 25238); experiment: MIC by broth microdilution, M. catarrhalis 300; format: cell-based; details: ATCC25238, DRCC 300, broth microdilution in MHB, read-out: Antimicrobial Screening (MIC) M. catarrhalis 300
Procedure: as §1, §2, §3, §4, §5

[9] = test system: H. influenzae 432 (Haemophilus influenzae ATCC 49247); experiment: MIC by broth microdilution, H. influenzae 432; format: cell-based; details: ATCC49247, DRCC 432, broth microdilution in MHB, read-out: Antimicrobial Screening (MIC) H. influenzae 432
Procedure: as §1, §2, §3, §4, §5

[10] = test system: Enterococcus sp 154 R (Enterococcus faecium NCTC 12202); experiment: MIC by broth microdilution, Enterococcus sp 154 R; format: cell-based; details: NCTC12202, DRCC 154, R, broth microdilution in MHB, read-out: Antimicrobial Screening (MIC) Enterococcus sp 154 R
Procedure: as §1, §2, §3, §4, §5

Mycobacterium MTCC 006 = experiment: MIC by broth microdilution, Mycobacterium MTCC 006; format: cell-based; details: MTCC006, broth microdilution in MHB, read-out: Antimicrobial Screening (MIC) Mycobacterium MTCC 006
Procedure: as §1, §2, §3, §4, §5

COC(=S)NC[C@H]1CN(c2ccc(N3CC(=O)N(Cc4ccc(OC)cc4)C3)c(F)c2)C(=O)O1 [Example 153]
melting point: 158 °C

CC(C)OC(=S)NC[C@H]1CN(c2ccc(N3CC(=O)N(Cc4ccccc4)C3)c(F)c2)C(=O)O1 [Example 154]
melting point: 192 °C

COC(=S)NC[C@H]1CN(c2ccc(N3CC(=O)N(CO)C3)c(F)c2)C(=O)O1 [Example 155]
melting point: 184 °C

COC(=S)NC[C@H]1CN(c2ccc(N3CC(=O)N(CO)C3)cc2)C(=O)O1 [Example 157]
melting point: 202 to 208 °C

COC(=S)NC[C@H]1CN(c2ccc(N3CNC(=O)C3)cc2)C(=O)O1 [Example 158]
melting point: 205 to 210 °C

CCCCN1CN(c2ccc(N3C[C@H](CNC(=S)OC)OC3=O)cc2F)CC1=O [Example 160]
melting point: 122 °C

C=CCN1CN(c2ccc(N3C[C@H](CNC(=S)OC)OC3=O)cc2F)CC1=O [Example 161]
melting point: 86 °C

COC(=S)NC[C@H]1CN(c2cc(F)c(N3CC(=O)N(C)C3)c(F)c2)C(=O)O1 [Example 164]
MIC [1]: 16 µg/mL (≈ 40 µM) | MIC [2]: 0.5 µg/mL (≈ 1.25 µM) | MIC [3]: 0.5 µg/mL (≈ 1.25 µM) | MIC (Salmorella TA 97): 16 µg/mL (≈ 40 µM) | MIC [4]: 0.5 µg/mL (≈ 1.25 µM) | MIC [5]: 0.5 µg/mL (≈ 1.25 µM) | MIC [6]: 16 µg/mL (≈ 40 µM) | MIC [7]: 0.25 µg/mL (≈ 0.624 µM) | MIC [8]: 8 µg/mL (≈ 20 µM) | MIC [9]: 8 µg/mL (≈ 20 µM) | MIC [10]: 0.5 µg/mL (≈ 1.25 µM) | MIC (Mycobacterium MTCC 006): 4 µg/mL (≈ 9.99 µM)

CCCOC(=S)NC[C@H]1CN(c2cc(F)c(N3CNC(=O)C3)c(F)c2)C(=O)O1 [Example 165]
MIC [1]: > 32 µg/mL | MIC [2]: 2 µg/mL (≈ 4.83 µM) | MIC [3]: 1 µg/mL (≈ 2.41 µM) | MIC (Salmorella TA 97): 32 µg/mL (≈ 77.2 µM) | MIC [4]: 1 µg/mL (≈ 2.41 µM) | MIC [5]: 2 µg/mL (≈ 4.83 µM) | melting point: 186 to 188 °C | MIC [6]: > 32 µg/mL | MIC [7]: 1 µg/mL (≈ 2.41 µM) | MIC [8]: > 32 µg/mL | MIC [9]: > 32 µg/mL | MIC [10]: 2 µg/mL (≈ 4.83 µM) | MIC (Mycobacterium MTCC 006): 32 µg/mL (≈ 77.2 µM)

CCOC(=S)NC[C@H]1CN(c2cc(F)c(N3CNC(=O)C3)c(F)c2)C(=O)O1 [Example 166]
MIC [1]: > 32 µg/mL | MIC [2]: 1 µg/mL (≈ 2.5 µM) | MIC [3]: 0.5 µg/mL (≈ 1.25 µM) | MIC (Salmorella TA 97): 32 µg/mL (≈ 79.9 µM) | MIC [4]: 0.5 µg/mL (≈ 1.25 µM) | MIC [5]: 1 µg/mL (≈ 2.5 µM) | melting point: 178 to 180 °C | MIC [6]: > 32 µg/mL | MIC [7]: 0.5 µg/mL (≈ 1.25 µM) | MIC [8]: 32 µg/mL (≈ 79.9 µM) | MIC [9]: > 32 µg/mL | MIC [10]: 1 µg/mL (≈ 2.5 µM) | MIC (Mycobacterium MTCC 006): 32 µg/mL (≈ 79.9 µM)

CC(C)OC(=S)NC[C@H]1CN(c2cc(F)c(N3CNC(=O)C3)c(F)c2)C(=O)O1 [Example 167]
MIC [1]: > 32 µg/mL | MIC [2]: 8 µg/mL (≈ 19.3 µM) | MIC [3]: 2 µg/mL (≈ 4.83 µM) | MIC (Salmorella TA 97): 32 µg/mL (≈ 77.2 µM) | MIC [4]: 2 µg/mL (≈ 4.83 µM) | MIC [5]: 4 µg/mL (≈ 9.65 µM) | melting point: 176 to 178 °C | MIC [6]: > 32 µg/mL | MIC [7]: 2 µg/mL (≈ 4.83 µM) | MIC [8]: > 32 µg/mL | MIC [9]: > 32 µg/mL | MIC [10]: 8 µg/mL (≈ 19.3 µM) | MIC (Mycobacterium MTCC 006): 32 µg/mL (≈ 77.2 µM)

COC(=S)NC[C@H]1CN(c2cc(F)c(N3CC(=O)N(CC(=O)OC(C)(C)C)C3)c(F)c2)C(=O)O1 [Example 168]
MIC [2]: 2 µg/mL (≈ 4 µM) | MIC [3]: 2 µg/mL (≈ 4 µM) | MIC (Salmorella TA 97): 32 µg/mL (≈ 63.9 µM) | MIC [4]: 2 µg/mL (≈ 4 µM) | MIC [5]: 1 µg/mL (≈ 2 µM) | MIC [7]: 2 µg/mL (≈ 4 µM) | MIC [10]: 2 µg/mL (≈ 4 µM) | MIC (Mycobacterium MTCC 006): 32 µg/mL (≈ 63.9 µM)

COC(=O)CN1CN(c2c(F)cc(N3C[C@H](CNC(=S)OC)OC3=O)cc2F)CC1=O [Example 169]
MIC [2]: 0.5 µg/mL (≈ 1.09 µM) | MIC [3]: 1 µg/mL (≈ 2.18 µM) | MIC (Salmorella TA 97): 32 µg/mL (≈ 69.8 µM) | MIC [4]: 2 µg/mL (≈ 4.36 µM) | MIC [5]: 0.5 µg/mL (≈ 1.09 µM) | MIC [7]: 1 µg/mL (≈ 2.18 µM) | MIC [10]: 1 µg/mL (≈ 2.18 µM) | MIC (Mycobacterium MTCC 006): 8 µg/mL (≈ 17.5 µM)

COC(=S)NC[C@H]1CN(c2ccc(N3CC(=S)N(C)C3)c(F)c2)C(=O)O1 [Example 177]
melting point: 195 °C

COCN1CN(c2ccc(N3C[C@H](CNC(=S)OC)OC3=O)cc2F)CC1=O [Example 178]
melting point: 160 °C

COC(=S)NC[C@H]1CN(c2ccc(N3CC(=O)N(Cc4ccccc4)C3)c(F)c2)C(=O)O1 [Example 179]
melting point: 176 °C

CCOC(=S)NC[C@H]1CN(c2ccc(N3CC(=O)N(Cc4ccccc4)C3)c(F)c2)C(=O)O1 [Example 180]
melting point: 184 °C

O=C1OCCN1c1ccc(N2C[C@H](CNC(=S)N3CCC[C@H]3CO)OC2=O)cc1 [Example 182]
melting point: 159 °C

CCN(CC)C(=S)NC[C@H]1CN(c2ccc(N3CCOC3=O)cc2)C(=O)O1 [Example 183]
melting point: 103 °C

C=CCNC(=S)NC[C@H]1CN(c2ccc(N3CCOC3=O)cc2)C(=O)O1 [Example 184]
melting point: 171 °C

O=C1OCCN1c1ccc(N2C[C@H](CNC(=S)NCc3ccccc3)OC2=O)cc1 [Example 185]
melting point: 181 °C

COc1ccc(CNC(=S)NC[C@H]2CN(c3ccc(N4CCOC4=O)cc3)C(=O)O2)cc1 [Example 186]
melting point: 169 °C

O=C1OCCN1c1ccc(N2C[C@H](CNC(=S)NCc3ccccn3)OC2=O)cc1 [Example 187]
melting point: 165 °C

CNC(=S)NC[C@H]1CN(c2ccc(N3CCOC3=O)cc2)C(=O)O1 [Example 188]
melting point: 175 °C

O=C1OCCN1c1ccc(N2C[C@H](CNC(=S)NCCO)OC2=O)cc1 [Example 189]
melting point: 161 °C

O=C1OCCN1c1ccc(N2C[C@H](CNC(=S)N3CCSCC3)OC2=O)cc1 [Example 190]
melting point: 159 °C

O=C1OCCN1c1ccc(N2C[C@H](CNC(=S)Nc3ccccn3)OC2=O)cc1 [Example 191]
melting point: 189 °C

NC(=S)NC[C@H]1CN(c2ccc(N3CCOC3=O)c(F)c2)C(=O)O1 [Example 192]
melting point: 178 °C

CNC(=S)NC[C@H]1CN(c2ccc(N3CCOC3=O)c(F)c2)C(=O)O1 [Example 193]
melting point: 144 °C

NC(=S)NC[C@H]1CN(c2cc(F)c(N3CCOC3=O)c(F)c2)C(=O)O1 [Example 194]
melting point: 92 °C

CNC(=S)NC[C@H]1CN(c2cc(F)c(N3CCOC3=O)c(F)c2)C(=O)O1 [Example 195]
melting point: 113 °C

COC(=S)N(C)C[C@H]1CN(c2cc(F)c(N3CNC(=O)C3)c(F)c2)C(=O)O1 [Example 198]
melting point: 154 to 156 °C
